Assay: xn = mol fraction of the nth substance listed
Settings: 101 kPa, Liquid; for viscosity: Capillary tube (Ostwald / Ubbelohde) method; for mass density: Vibrating tube method

CCCCCCn1cc[n+](C)c1.F[B-](F)(F)F [1-hexyl-3-methylimidazolium tetrafluoroborate] + CC(C)CO
Settings	mass density [kg/m3]	viscosity [mPa·s]
293.15 K, x1 = 0.3101	989.53	18.26
293.15 K, x1 = 0.4279	1031.42	26.88
293.15 K, x1 = 0.5606	1068.28	49.75
293.15 K, x1 = 0.6901	1097.67	84.38
293.15 K, x1 = 0.8327	1123.89	138.81
293.15 K, x1 = 1	1149.05	234.68
298.15 K, x1 = 0.3101	985.83	15.47
298.15 K, x1 = 0.4279	1027.83	23.01
298.15 K, x1 = 0.5606	1064.75	37.72
298.15 K, x1 = 0.6901	1094.14	66.81
298.15 K, x1 = 0.8327	1120.44	107.94
298.15 K, x1 = 1	1145.61	178.92
303.15 K, x1 = 0.1004	870.1	5.95
303.15 K, x1 = 0.151	902.53	7.454
303.15 K, x1 = 0.2009	931.08	8.374
303.15 K, x1 = 0.3101	982.2	12.94
303.15 K, x1 = 0.4279	1024.31	18.9
303.15 K, x1 = 0.5606	1061.3	32.1
303.15 K, x1 = 0.6901	1090.76	53.77
303.15 K, x1 = 0.8327	1117.15	84.55
303.15 K, x1 = 1	1142.3	136.15
308.15 K, x1 = 0.1004	866.28	4.975
308.15 K, x1 = 0.151	898.71	6.339
308.15 K, x1 = 0.2009	927.23	7.116
308.15 K, x1 = 0.3101	978.63	10.74
308.15 K, x1 = 0.4279	1020.8	15.81
308.15 K, x1 = 0.5606	1057.79	25.74
308.15 K, x1 = 0.6901	1087.32	45.36
308.15 K, x1 = 0.8327	1113.75	67.62
308.15 K, x1 = 1	1138.95	106.65
313.15 K, x1 = 0.1004	862.42	4.108
313.15 K, x1 = 0.151	894.93	5.202
313.15 K, x1 = 0.2009	923.74	6.184
313.15 K, x1 = 0.3101	975.11	9.102
313.15 K, x1 = 0.4279	1017.21	13.43
313.15 K, x1 = 0.5606	1054.27	21.67
313.15 K, x1 = 0.6901	1083.88	37.52
313.15 K, x1 = 0.8327	1110.33	52.79
313.15 K, x1 = 1	1135.59	83.13
318.15 K, x1 = 0.1004	858.54	3.188
318.15 K, x1 = 0.151	891.18	4.388
318.15 K, x1 = 0.2009	920.15	5.281
318.15 K, x1 = 0.3101	971.5	7.758
318.15 K, x1 = 0.4279	1013.64	11.45
318.15 K, x1 = 0.5606	1050.78	18.8
318.15 K, x1 = 0.6901	1080.45	31.4
318.15 K, x1 = 0.8327	1106.94	45.07
318.15 K, x1 = 1	1132.22	69.13
323.15 K, x1 = 0.1004	854.62	2.993
323.15 K, x1 = 0.151	887.3	3.765
323.15 K, x1 = 0.2009	916.37	4.555
323.15 K, x1 = 0.3101	967.87	6.719
323.15 K, x1 = 0.4279	1010.02	9.919
323.15 K, x1 = 0.5606	1047.3	15.64
323.15 K, x1 = 0.6901	1077.03	26.31
323.15 K, x1 = 0.8327	1103.61	36.01
323.15 K, x1 = 1	1128.88	56.74
328.15 K, x1 = 0.1004	850.65	2.586
328.15 K, x1 = 0.151	883.51	3.266
328.15 K, x1 = 0.2009	912.52	3.949
328.15 K, x1 = 0.3101	964.12	5.855
328.15 K, x1 = 0.4279	1006.35	8.616
328.15 K, x1 = 0.5606	1043.79	13.62
328.15 K, x1 = 0.6901	1073.6	21.88
328.15 K, x1 = 0.8327	1100.2	29.92
328.15 K, x1 = 1	1125.5	48.36
333.15 K, x1 = 0.1004	846.65	2.21
333.15 K, x1 = 0.151	879.73	2.847
333.15 K, x1 = 0.2009	908.64	3.475
333.15 K, x1 = 0.3101	960.36	5.18
333.15 K, x1 = 0.4279	1002.74	7.6
333.15 K, x1 = 0.5606	1040.26	11.92
333.15 K, x1 = 0.6901	1070.21	18.98
333.15 K, x1 = 0.8327	1096.86	26.84
333.15 K, x1 = 1	1122.14	43.01
338.15 K, x1 = 0.1004	842.59	1.853
338.15 K, x1 = 0.151	875.79	2.526
338.15 K, x1 = 0.2009	904.74	3.056
338.15 K, x1 = 0.3101	956.56	4.566
338.15 K, x1 = 0.4279	999.08	6.374
338.15 K, x1 = 0.5606	1036.78	10.1
338.15 K, x1 = 0.6901	1066.82	15.78
338.15 K, x1 = 0.8327	1093.56	23.43
338.15 K, x1 = 1	1118.8	37.15

NCCCO [3-amino-1-propanol] + CCCCCCn1cc[n+](C)c1.F[B-](F)(F)F
Settings	mass density [kg/m3]	viscosity [mPa·s]
293.15 K, x2 = 0	987.55	39.29
293.15 K, x2 = 0.0536	1010.87	39.35
293.15 K, x2 = 0.0969	1026.17	42.89
293.15 K, x2 = 0.202	1055.57	49.26
293.15 K, x2 = 0.3217	1080.32	56.99
293.15 K, x2 = 0.4942	1105.94	77.82
293.15 K, x2 = 0.6135	1118.92	97.27
293.15 K, x2 = 0.7276	1129.17	125.01
293.15 K, x2 = 0.8343	1137.49	163.87
293.15 K, x2 = 0.9204	1143.7	192.2
298.15 K, x2 = 0	983.55	30.43
298.15 K, x2 = 0.0536	1006.96	30.8
298.15 K, x2 = 0.0969	1022.3	33.2
298.15 K, x2 = 0.202	1051.74	37.85
298.15 K, x2 = 0.3217	1076.53	44.61
298.15 K, x2 = 0.4942	1102.24	59.65
298.15 K, x2 = 0.6135	1115.24	74.53
298.15 K, x2 = 0.7276	1125.66	95.2
298.15 K, x2 = 0.8343	1134.08	123.47
298.15 K, x2 = 0.9204	1140.23	148.27
303.15 K, x2 = 0	979.53	23.87
303.15 K, x2 = 0.0536	1003.04	24.16
303.15 K, x2 = 0.0969	1018.41	26.02
303.15 K, x2 = 0.202	1047.91	29.45
303.15 K, x2 = 0.3217	1072.75	34.55
303.15 K, x2 = 0.4942	1098.55	46.03
303.15 K, x2 = 0.6135	1111.63	57.96
303.15 K, x2 = 0.7276	1122.11	73.65
303.15 K, x2 = 0.8343	1130.63	95.84
303.15 K, x2 = 0.9204	1136.88	115.79
308.15 K, x2 = 0	975.51	19.07
308.15 K, x2 = 0.0536	999.11	19.14
308.15 K, x2 = 0.0969	1014.5	20.58
308.15 K, x2 = 0.202	1044.05	23.41
308.15 K, x2 = 0.3217	1068.95	27.53
308.15 K, x2 = 0.4942	1094.86	36.45
308.15 K, x2 = 0.6135	1108.04	45.81
308.15 K, x2 = 0.7276	1118.58	58.09
308.15 K, x2 = 0.8343	1127.18	75.38
308.15 K, x2 = 0.9204	1133.5	91.04
313.15 K, x2 = 0	971.47	15.27
313.15 K, x2 = 0.0536	995.18	15.64
313.15 K, x2 = 0.0969	1010.6	16.63
313.15 K, x2 = 0.202	1040.2	18.74
313.15 K, x2 = 0.3217	1065.16	22.05
313.15 K, x2 = 0.4942	1091.16	29.14
313.15 K, x2 = 0.6135	1104.43	36.47
313.15 K, x2 = 0.7276	1115.05	46.32
313.15 K, x2 = 0.8343	1123.73	59.62
313.15 K, x2 = 0.9204	1130.12	71.6
318.15 K, x2 = 0	967.43	12.35
318.15 K, x2 = 0.0536	991.28	12.68
318.15 K, x2 = 0.0969	1006.67	13.6
318.15 K, x2 = 0.202	1036.34	15.76
318.15 K, x2 = 0.3217	1061.36	18.42
318.15 K, x2 = 0.4942	1087.47	23.9
318.15 K, x2 = 0.6135	1100.82	28.64
318.15 K, x2 = 0.7276	1111.54	37.85
318.15 K, x2 = 0.8343	1120.28	48.22
318.15 K, x2 = 0.9204	1126.73	58.5
323.15 K, x2 = 0	963.37	10.22
323.15 K, x2 = 0.0536	987.32	10.61
323.15 K, x2 = 0.0969	1002.75	11.16
323.15 K, x2 = 0.202	1032.48	12.61
323.15 K, x2 = 0.3217	1057.55	15.89
323.15 K, x2 = 0.4942	1083.77	19.73
323.15 K, x2 = 0.6135	1097.21	24.2
323.15 K, x2 = 0.7276	1108.02	31.19
323.15 K, x2 = 0.8343	1116.83	39.61
323.15 K, x2 = 0.9204	1123.36	47.9
328.15 K, x2 = 0	959.3	8.535
328.15 K, x2 = 0.0536	983.35	8.7
328.15 K, x2 = 0.0969	998.8	9.325
328.15 K, x2 = 0.202	1028.62	10.96
328.15 K, x2 = 0.3217	1053.76	13.04
328.15 K, x2 = 0.4942	1080.08	16.58
328.15 K, x2 = 0.6135	1093.61	19.92
328.15 K, x2 = 0.7276	1104.51	26.05
328.15 K, x2 = 0.8343	1113.4	33.11
328.15 K, x2 = 0.9204	1119.94	41.26
333.15 K, x2 = 0	955.22	7.123
333.15 K, x2 = 0.0536	979.37	7.144
333.15 K, x2 = 0.0969	994.86	7.836
333.15 K, x2 = 0.202	1024.75	8.918
333.15 K, x2 = 0.3217	1049.98	10.47
333.15 K, x2 = 0.4942	1076.4	13.86
333.15 K, x2 = 0.6135	1090.05	17.14
333.15 K, x2 = 0.7276	1101.02	21.81
333.15 K, x2 = 0.8343	1109.97	27.5
333.15 K, x2 = 0.9204	1116.55	37.45
338.15 K, x2 = 0	951.14	6.045
338.15 K, x2 = 0.0536	975.37	6.221
338.15 K, x2 = 0.0969	990.91	6.676
338.15 K, x2 = 0.202	1020.88	7.634
338.15 K, x2 = 0.3217	1046.21	9.153
338.15 K, x2 = 0.4942	1072.72	11.94
338.15 K, x2 = 0.6135	1086.5	14.71
338.15 K, x2 = 0.7276	1097.55	18.64
338.15 K, x2 = 0.8343	1106.57	23.24
338.15 K, x2 = 0.9204	1113.17	32.09
